Reference: patent US20190290656A1, “PT(IV) PRODRUGS” (YISSUM RESEARCH DEVELOPMENT COMPANY OF THE HEBREW …, priority 2015, published 2019)

Tests used:
[1] = system: PSN-1 cells; assay: Glycolysis (Mito-ID O2 sensor), PSN-1; type: cell-based, human; conditions: IC50 concentrations, 24 h
Protocol: Glycolysis. The cellular glycolytic activity was assessed using the Mito-ID® O2 Extracellular Sensor Kit according to the manufacturer's instructions (Enzo Life Sciences, Farmingdale, N.Y.). Briefly, PSN-1 cells (15·10^3 per well) were seeded in 96-well plates. After 24 h, cells were treated with Mito-ID® O2 Sensor Probe Solution containing the tested compounds at the appropriate concentration. Fluorescence was estimated using a plate reader (Fluoroskan Ascent FL, Labsystem, Finland) at 350 nm (excitation) and 610 nm (emission).
Based on the above findings, we investigated the effects determined by derivatives 3a and 3b on 2008 and PSN-1 cancer cell aerobic glycolysis and mitochondria function.
However, these effects were magnified in PSN-1 cells, having reduction of cellular glycolytic activity of about 36 and 20% for 3a and 3b, respectively. […] This latter result could be explained tacking into consideration that the reference compound [Pt(DACH)(56Phen)] itself, that is also released upon reduction of 3a and 3b, is effective in hampering cellular glycolysis in both tested cancer cell lines. The difference between 3a and 3b might be attributed to the added effect of DCA.

[2] = system: PSN-1 cells; assay: Nuclear DNA fragmentation ELISA, PSN-1; type: cell-based, human; conditions: 48 h, IC50
Protocol: FIGS. 13A-13B provide: FIG. 13A) Cytochrome c release. […] FIG. 13B) Nuclear DNA fragmentation. […] Quantitative estimation of DNA fragmentation was obtained with an ELISA test. Data are the means of five independent experiments. Error bars indicate SD.
After 48 h of treatment a roughly 20-fold increase in histone-DNA formation was detected with 3a with respect to controls.

[3] = Reduction in buffer in the presence of ascorbic acid; type: physicochemical; conditions: 1 Eq ascorbic acid, phosphate buffer, RT, 2 hours
Protocol: A solution 2.0 mM of 3a (Scheme 4) in buffer was treated with 1 Eq ascorbic acid. NMR measurements were performed over a 2 hour time frame.
In order to assay which of the two Pt metal centers of 3a is more prone to be reduced, we added 1 Eq of ascorbic acid to a solution of 3a in phosphate buffer. […] Finally, we carried out the reaction at RT and not at 37° C. to avoid a fast reduction process that would have made more complicated its study.
The reaction was monitored by ^1H NMR spectroscopy (FIG. 9). Already after 2 min, time needed to prepare the sample and start the NMR experiment, besides the signals belonging to 3a, previously discussed, it was possible to note the signal belonging to [Pt(DACH)(56Phen)]^2+, free phenyl butyric acid and a signal at 6.34 ppm, consistent with a DCA moiety coordinated to a Pt(IV) metal center. These signals indicated the reduction of the phenanthroline-bonded Pt unit of 3a to [Pt(DACH)(56Phen)]^2+, and the release of the axial ligands, […] and c,c,t-[Pt(NH3)2(DCA)(OOCCH2CH2CH2NHCOCH2CH2COOH)] (5). We were not able to isolate the latter species. […] The reaction was monitored for about 2 hours. In FIG. 9 are reported the spectra recorded after 9, 21 and 59 min. In the second hour, no changes were detected.

[4] = octanol/water partition, shake-flask method; type: physicochemical
Protocol: To quantify the hydrophobicity of the platinum complexes, partition coefficients (log P) values for octanol/water partition were measured using the shake-flask method.

[5] = system: A2780cisR cells; assay: MTT cytotoxicity assay, A2780cisR (cisplatin resistant); type: cell-based, human; conditions: A2780cisR, 72 h exposure, MTT; read-out: IC50 (median growth inhibitory concentration)
Protocol: (§1) Platinum(IV) complexes were dissolved in DMSO to stock solutions of 1 mg/mL just before the experiment, and a calculated amount of drug solution was added to the cell growth medium to a final solvent concentration of 0.5%, which had no discernible effect on cell killing. Cisplatin (CDDP) and oxaliplatin (OXP) were dissolved just before the experiment in a 0.9% NaCl solution.
(§2) Human prostate adenocarcinoma (PC3) cells were obtained from European Collection of Cell Cultures (ECACC, Salisbury, UK). Human ovarian cancer cell lines A2780 and its cisplatin resistant variant, A2780cisR, were kindly provided by Prof.
(§3) Cancer Res. 1988, 48, 589-601]. […] Triplicate cultures were established for each treatment.

[6] = system: Histone deacetylase (HDAC); assay: Histone deacetylase assay (Fluor-de-Lys) in MCF-7 cells; type: cell-based, human; conditions: MCF-7, 24 h, IC50 concentrations
Protocol: Histone deacetylase activity was determined using Fluor-de-Lys® HDAC fluorometric activity assay kit (Enzo Life Sciences International, Inc., Plymount Meeting, Pa., U.S.A.). […] Fluorescence was measured using a Fluoroskan Ascent FL (Labsystem, Finland) plate reader, with excitation at 360 nm and emission at 460 nm. For comparison purpose, the HDAC activity was also measured in nuclear extracts of MCF-7-treated cells by means of the same fluorometric activity assay kit. In this latter case, MCF-7 nuclear extracts were obtained as follow: cell pellets were re-suspended in lysis buffer [Tris.HCl (10 mM, pH 8.0), KCl (60 mM), EDTA (1.2 mM), DTT (1 mM), PMSF (0.05 mM), NP-40 (0.05%)] and kept on ice for 10 min. Subsequently, samples were centrifuged at 1000 g and re-suspended in the nuclear extraction buffer [Tris.HCl (20 mM, (pH 8.0), NaCl (420 mM), MgCl2 (0.7 mM), EDTA (0.25 mM), glycerol (25%)] for 30 min at 4° C., and then centrifuged at 15000 g for 15 min at 4° C.
The complexes described here were specifically designed to release either VPA of PhB inside the cells in the hope that they will inhibit HDAC activity paving the way for more efficient DNA platination. Thus, in addition to measuring the levels of DNA platination, we also measured the ability of these pro-drugs to inhibit HDAC activity in cells. […] For comparison purposes, the HDAC inhibitory effect determined by tested complexes was also assayed in isolated nuclei of MCF-7 treated cells (FIG. 3B).
The HDAC activity was determined by the Fluor de Lys® Fluorescent Cellular Activity Assay (Enzo Life Sciences).
Also, MCF-7 cells were incubated for 24 h with increasing concentrations of compounds I-VIII and their HDAC activity was determined. The IC50 values for the inhibition of HDAC activity in the cells are depicted in FIG. 3C.

[7] = system: A498 cells; assay: MTT cytotoxicity assay, A498; type: cell-based, human; conditions: A498, 72 h exposure, read-out: IC50 (median growth inhibitory concentration)
Protocol: as §1, §2, §3

| Compound | reduction of cellular glycolytic activity [1] | fold increase in histone-DNA formation with respect to controls [2] | reduction by ascorbic acid (in words) [3] | Log P [4] | IC50 [5] [µM] | effect on HDAC activity (in words) [6] | IC50 [7] [µM] |
| --- | --- | --- | --- | --- | --- | --- | --- |
| c,c,t,t,c,c-[(DACH)(56Phen)(PhBu)Pt(μ-OOC—(CH2)2—CONH(CH2)3COO)—Pt(DCA)(NH3)2 (Cl2)](TFA)2 [Compound 3a] | about 36% | roughly 20 fold | faster reduction of the phenanthroline-bonded Pt unit | – | – | – | – |
| [NH2][Pt]([NH2])([Cl])[Cl] [CDDP, Cisplatin, reference compound] | – | – | – | −2.25 ± 0.04 | 13.8 ± 0.2 | not effective in modifying HDAC activity | 17.5 ± 1.21 |
